US11590087B2, “Cannabidiol-type cannabinoid compound” (GW Research Limited, priority 2019, dated 2023)

Key:
[1] = tested on: tonic hind limb extensor convulsions; test: Maximal electroshock seizure threshold (MEST) test in the mouse; conditions: for % change from vehicle (CC50) / CC50 ± SEM: mouse
Description: The efficacy of 6-OH CBDV was tested in a mouse model of generalised seizure, the maximal electroshock seizure threshold (MEST) test.
The maximal electroshock seizure threshold (MEST) test is widely utilized preclinically to evaluate pro- or anti-convulsant properties of test compounds (Loscher et al., 1991).
In the MEST test the ability of a drug to alter the seizure threshold current required to induce hind limb tonic extensor convulsions is measured according to an “up and down” method of shock titration (Kimball et al., 1957). An increase in seizure threshold is indicative of anti-convulsant effect.
The ability of a test compound to alter the stimulus intensity, expressed as current (mA), required to induce the presence of tonic hind limb extensor convulsions, is assessed in the MEST.
Naïve mice were acclimatised to the procedure room in their home cages for up to 7 days, with food and water available ad libitum.
All animals were weighed at the beginning of the study and randomly assigned to treatment groups based on a mean distribution of body weight across groups.
The first animal within a treatment group was given a shock at the expected or estimated CC50 current. For subsequent animals, the current was lowered or raised depending on the convulsions outcome from the preceding animal.
Data generated from each treatment group were used to calculate the CC50±SEM values for the treatment group.
Vehicle: (5% ethanol, 5% solutol, 90% Saline) was prepared as follows: 2 mL of ethanol, 2 mL of solutol were warmed to 60° C., in 36 mL of saline (1:1:18).
The test compound, alpha 6-OH CBDV was prepared according to the method described in Example 1. 6-OH CBDV was administered at 3, 10 and 30 mg/kg (i.p.) in a 1:1:18 ethanol:soluto:0.9% saline formulation.
6-OH CBDV effects were also calculated as percentage change in CC50 from the vehicle control group.
Significant difference between drug-treated animals and controls were assessed according to Litchfield and Wilcoxon (1949).

[2] = tested on: tonic hind limb extensor seizure; test: Supramaximal electroshock seizure (MES) test in the mouse; format: in vivo
Excerpt: The supramaximal electroshock seizure ([…]) test is widely utilized preclinically to evaluate anti-convulsant properties of molecules and standard anti-epileptic drugs (Loscher et al., 1991).
The MES test is a very stringent model in which mice receive a predetermined high-level electrical stimulus of sufficient intensity to reliably produce tonic hindlimb extensor seizures in 100% of control animals. As such the MES test is a rigorous evaluation of anticonvulsant activity (Swinyard, 1985).
Animals were dosed i.p. according to treatment group.
The vehicle (10 ml/kg i.p. 60 min pre-treatment time) was 1:1:18 vehicle 5% ethanol, 5% kolliphor EL, 90% saline.
The test compound, 6-OH CBDV was administered at doses of 3, 10, 30, and 100 mg/kg given at 10 ml/kg i.p. 60 min pre-treatment time.
The positive control valproate was used at 250 mg/kg (10 ml/kg i.p. 30 min pre-treatment time).
Induction of seizure is measured as an all-or-nothing effect scored as either present (+) or absent (0) for each animal.
Data was collected by an observer unaware of the treatment for each animal and was expressed as the number of +'s or 0's for each treatment group.
The percentage inhibition of relevant vehicle treated group (the protection relative to vehicle treated controls) was then generated.
Significant differences between individual treatment groups and vehicle-treated groups were assessed using 2-tailed Fisher's Exact Probability test (p<0.05 considered significant).

[3] = 250 mg/kg i.p., 30 min pre-treatment
[4] = 3 mg/kg i.p., 15 min pre-treatment
[5] = 10 mg/kg i.p., 15 min pre-treatment
[6] = 30 mg/kg i.p., 30 min pre-treatment

Structure (SMILES): CN1C(=O)CN=C(c2ccccc2)c2cc(Cl)ccc21 [Diazepam, diazepam, reference compound]
- % change from vehicle (CC50) ([1]; 2.5 mg/kg i.p., 30 min pre-treatment): 124%

Structure (SMILES): CCCC(CCC)C(=O)[O-].[Na+] [Valproate, sodium valproate, reference compound]
- % change from vehicle [2, 3]: 100%
- Induction of seizure (present/absent) ([2]; 250 mg/kg i.p., 30 minutes before the test): all animals were scored as not having a seizure
- % change from vehicle (CC50) [1, 3]: 997%

Structure (SMILES): C=C(C)[C@@H]1CC(O)C(C)=C[C@H]1c1c(O)cc(CCC)cc1O (stereo partly drawn) [6-OH CBDV, Alpha 6-hydroxy cannabidivarin]
- % change from vehicle ([2]; 3 mg/kg i.p., 60 min pre-treatment): 20%
- % change from vehicle ([2]; 10 mg/kg i.p., 60 min pre-treatment): 20%
- % change from vehicle ([2]; 30 mg/kg i.p., 60 min pre-treatment): 100%
- Induction of seizure (present/absent) ([2]; 30 mg/kg i.p., 60 minutes before the test): enabled all mice to withstand seizures
- % change from vehicle ([2]; 100 mg/kg i.p., 60 min pre-treatment): 100%
- Induction of seizure (present/absent) ([2]; 100 mg/kg i.p., 60 minutes before the test): enabled all mice to withstand seizures
- % change from vehicle (CC50) [1, 4]: 111%
- CC50 ± SEM [1, 4]: 54.2 ± 1.4 mA
- % change from vehicle (CC50) [1, 5]: 147%
- CC50 ± SEM [1, 5]: 63.5 ± 3.4 mA
- % change from vehicle (CC50) [1, 6]: 260%
- CC50 ± SEM [1, 6]: 92.5 ± 0.4 mA
- Effect on MEST (seizure threshold) across doses ([1]; mouse, 3, 10 and 30 mg/kg i.p.): dose-related increase in MEST
